Experimental data taken from patent publication US20110217300A1, “Quinazolinone Compounds and Methods of Use Thereof” (priority 2007, published 2011).
Where two headings read alike, the source gives them in different places.

Assays:
A549 = assay: MTS cell viability assay; assay type: cell-based; conditions: Homo sapiens, A549 non small cell lung, 72 hours, read-out: MTS NCI A549 GI50
Outline: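 A549 and a second human cancer line seeded in DMEM/10% FBS, allowed 16–24 h to attach, then exposed 72 h at 37 °C, 5% CO2 to serially diluted compound (final DMSO 0.33%). Viability measured by MTS.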

HsEg5 = molecular target: T1, HsEg5 (Homo sapiens, UniProt P52732); assay: Fluorescence detection of HsEg5 ATPase activity (ADP Quest, automated); assay type: biochemical
T1 sequence (P52732 18-359 limits assumed): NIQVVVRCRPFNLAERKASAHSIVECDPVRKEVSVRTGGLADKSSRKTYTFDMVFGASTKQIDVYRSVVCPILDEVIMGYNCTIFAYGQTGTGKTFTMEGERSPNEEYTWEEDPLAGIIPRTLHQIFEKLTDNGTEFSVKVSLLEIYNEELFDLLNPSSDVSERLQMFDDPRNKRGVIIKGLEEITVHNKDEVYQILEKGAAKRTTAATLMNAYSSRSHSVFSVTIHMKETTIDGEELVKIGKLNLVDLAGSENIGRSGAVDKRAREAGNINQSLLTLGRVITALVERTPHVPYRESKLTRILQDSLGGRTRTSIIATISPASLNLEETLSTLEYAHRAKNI
Outline: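 Microtubule-activated HsEg5 motor fragment (10 nM, 500 nM MTs) preincubated 10 min with compound, then 20 μM ATP for 10 min at room temperature in Pipes pH 7.0, MgCl2, paclitaxel, 0.3% DMSO. ADP detected via coupled-enzyme resorufin fluorescence; IC50 over 100 μM–5 nM.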

NCI-H460 = assay: MTS cell viability assay; assay type: cell-based, human; conditions: Homo sapiens, NCI-H460, 72 h
Outline: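 Seed 100-5000 cells/well, rest 16-24 h; add compound diluted from DMSO stocks (final DMSO 0.33%); incubate 72 h at 37° C.; add MTS/PMS 4 h; stop with 1.4% SDS; read […]. GI50 calculated.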

[1] = read-out: MTS NCI H460 GI50, NCI-H460 non small cell lung, 72 hours

Row | SMILES | GI50 (A549; A549, 72 h) [µM] | IC50 (HsEg5) [µM] | GI50 (NCI-H460; [1]) [µM] | GI50 (A549) [µM] | GI50 (NCI-H460; read-out: MTS NCI H460 GI50) [µM]
1 | CC(C)CC(c1nc2cc(Cl)ccc2c(=O)n1Nc1ccccc1)N(CCCN)C(=O)c1ccc(F)c(Cl)c1 (stereo not drawn) [Compound 37, N-(3-Aminopropyl)-N-[1-(3-anilino-7-chloro-4-oxo-3,4-dihydroquinazolin-2-yl)-3-methylbutyl]-3-chloro-4-fluorobenzamide] | 5.02 | 1.66 | 4.49 |  | 
2 | CSCCC(c1nc2cc(Cl)ccc2c(=O)n1Nc1ccccc1)N(CCCN)C(=O)c1ccc(C)c(F)c1F (stereo not drawn) [Compound 39, N-(3-Aminopropyl)-N-[1-(3-anilino-7-chloro-4-oxo-3,4-dihydroquinazolin-2-yl)-3-(methylthio)propyl]-2,3-difluoro-4-methylbenzamide] |  | 3.01 |  | 6.09 | 4.49
3 | CSCCC(c1nc2cc(Cl)ccc2c(=O)n1Nc1ccccc1)N(CCCN)C(=O)c1ccc(-n2cccn2)cc1 (stereo not drawn) [Compound 40, N-(3-Aminopropyl)-N-[1-(3-anilino-7-chloro-4-oxo-3,4-dihydroquinazolin-2-yl)-3-(methylthio)propyl]-4-(1H-pyrazol-1-yl)benzamide] |  | 2.83 |  | 6.12 | 8.35
4 | CC(c1nc2cc(Cl)ccc2c(=O)n1Nc1ccccc1)N(CCCN)C(=O)c1ccc(Cl)c(Cl)c1 (stereo not drawn) [Compound 41, N-(3-Aminopropyl)-N-[1-(3-anilino-7-chloro-4-oxo-3,4-dihydroquinazolin-2-yl)ethyl]-3,4-dichlorobenzamide] |  | 3.37 |  | 5.67 | 6.28
5 | CC(C)C(c1nc2cc(Cl)ccc2c(=O)n1Nc1ccccc1)N(CCCN)C(=O)c1cccc(F)c1F (stereo not drawn) [Compound 42, N-(3-Aminopropyl)-N-[1-(3-anilino-7-chloro-4-oxo-3,4-dihydroquinazolin-2-yl)-2-methylpropyl]-2,3-difluorobenzamide] |  | 0.476 |  | 4.28 | 2.08
6 | CC(C)C(c1nc2cc(Cl)ccc2c(=O)n1Nc1ccccc1)N(CCCN)C(=O)c1ccc(F)cc1 (stereo not drawn) [Compound 43, N-(3-Aminopropyl)-N-[1-(3-anilino-7-chloro-4-oxo-3,4-dihydroquinazolin-2-yl)-2-methylpropyl]-4-fluorobenzamide] |  | 0.833 |  | 3.49 | 2.81
7 | CC(C)C(c1nc2cc(Cl)ccc2c(=O)n1Nc1ccccc1)N(CCCN)C(=O)c1cccc(Br)c1 (stereo not drawn) [Compound 44, N-(3-Aminopropyl)-N-[1-(3-anilino-7-chloro-4-oxo-3,4-dihydroquinazolin-2-yl)-2-methylpropyl]-3-bromobenzamide] | 13.8 | 1.85 | 13.4 |  | 
8 | CC(C)C(c1nc2cc(Cl)ccc2c(=O)n1Nc1ccccc1)N(CCCN)C(=O)c1cc(F)c(Cl)cc1F (stereo not drawn) [Compound 45, N-(3-Aminopropyl)-N-[1-(3-anilino-7-chloro-4-oxo-3,4-dihydroquinazolin-2-yl)-2-methylpropyl]-4-chloro-2,5-difluorobenzamide] |  | 0.743 |  | 3.24 | 3.17
9 | CC(C)C(c1nc2cc(Cl)ccc2c(=O)n1Nc1ccccc1)N(CCCN)C(=O)c1ccc2ccccc2n1 (stereo not drawn) [Compound 47, N-(3-Aminopropyl)-N-[1-(3-anilino-7-chloro-4-oxo-3,4-dihydroquinazolin-2-yl)-2-methylpropyl]quinoline-2-carboxamide] |  | 3.23 |  | 4.09 | 2.7
10 | NCCCN(C(=O)c1ccc(Br)cc1)C(Cc1cccs1)c1nc2cc(Cl)ccc2c(=O)n1Nc1ccccc1 (stereo not drawn) [Compound 48, N-(3-Aminopropyl)-N-[1-(3-anilino-7-chloro-4-oxo-3,4-dihydroquinazolin-2-yl)-2-(2-thienyl)ethyl]-4-bromobenzamide] |  | 2.57 |  | 4.93 | 4.36
11 | Cc1ccc(C(=O)N(CCCN)C(Cc2cccs2)c2nc3cc(Cl)ccc3c(=O)n2Nc2ccccc2)cc1 (stereo not drawn) [Compound 49, N-(3-Aminopropyl)-N-[1-(3-anilino-7-chloro-4-oxo-3,4-dihydroquinazolin-2-yl)-2-(2-thienyl)ethyl]-4-methylbenzamide] | 4.69 | 3.44 | 4.41 |  | 
12 | NCCCN(C(=O)c1cccc(F)c1F)C(Cc1cccs1)c1nc2cc(Cl)ccc2c(=O)n1Nc1ccccc1 (stereo not drawn) [Compound 50, N-(3-Aminopropyl)-N-[1-(3-anilino-7-chloro-4-oxo-3,4-dihydroquinazolin-2-yl)-2-(2-thienyl)ethyl]-2,3-difluorobenzamide] | 3.77 | 1.18 | 3.12 |  | 
13 | NCCCN(C(=O)c1ccc(F)cc1)C(Cc1cccs1)c1nc2cc(Cl)ccc2c(=O)n1Nc1ccccc1 (stereo not drawn) [Compound 51, N-(3-Aminopropyl)-N-[1-(3-anilino-7-chloro-4-oxo-3,4-dihydroquinazolin-2-yl)-2-(2-thienyl)ethyl]-4-fluorobenzamide] |  | 2.8 |  | 4.45 | 5.38
14 | NCCCN(C(=O)c1ccc(F)c(F)c1)C(Cc1cccs1)c1nc2cc(Cl)ccc2c(=O)n1Nc1ccccc1 (stereo not drawn) [Compound 52, N-(3-Aminopropyl)-N-[1-(3-anilino-7-chloro-4-oxo-3,4-dihydroquinazolin-2-yl)-2-(2-thienyl)ethyl]-3,4-difluorobenzamide] | 4.29 | 1.25 | 3.47 |  | 
15 | NCCCN(C(=O)c1ccc(F)c(Cl)c1)C(Cc1cccs1)c1nc2cc(Cl)ccc2c(=O)n1Nc1ccccc1 (stereo not drawn) [Compound 53, N-(3-Aminopropyl)-N-[1-(3-anilino-7-chloro-4-oxo-3,4-dihydroquinazolin-2-yl)-2-(2-thienyl)ethyl]-3-chloro-4-fluorobenzamide] | 5.26 | 2.62 | 4.44 |  | 
16 | NCCCN(C(=O)c1ccc(Cl)c(Cl)c1)C(Cc1ccc(O)cc1)c1nc2cc(Cl)ccc2c(=O)n1Nc1ccccc1 (stereo not drawn) [Compound 54, N-(3-Aminopropyl)-N-[1-(3-anilino-7-chloro-4-oxo-3,4-dihydroquinazolin-2-yl)-2-(4-hydroxyphenyl)ethyl]-3,4-dichlorobenzamide] | 12.2 | 2.41 | 11.9 |  | 
17 | NCCCN(C(=O)c1ccc(F)c(F)c1F)C(Cc1ccc(O)cc1)c1nc2cc(Cl)ccc2c(=O)n1Nc1ccccc1 (stereo not drawn) [Compound 55, N-(3-Aminopropyl)-N-[1-(3-anilino-7-chloro-4-oxo-3,4-dihydroquinazolin-2-yl)-2-(4-hydroxyphenyl)ethyl]-2,3,4-trifluorobenzamide] | 33.7 | 4.16 | 16.1 |  | 
18 | C#CCC(c1nc2cc(Cl)ccc2c(=O)n1Nc1ccccc1)N(CCCN)C(=O)c1cc(F)c(Cl)cc1F (stereo not drawn) [Compound 56, N-(3-Aminopropyl)-N-[1-(3-anilino-7-chloro-4-oxo-3,4-dihydroquinazolin-2-yl)but-3-yn-1-yl]-4-chloro-2,5-difluorobenzamide] |  | 0.138 |  | 3.82 | 1.86
19 | C#CCC(c1nc2cc(Cl)ccc2c(=O)n1Nc1ccccc1)N(CCCN)C(=O)c1cccc(Cl)c1F (stereo not drawn) [Compound 57, N-(3-Aminopropyl)-N-[1-(3-anilino-7-chloro-4-oxo-3,4-dihydroquinazolin-2-yl)but-3-yn-1-yl]-3-chloro-2-fluorobenzamide] |  | 0.0506 |  | 0.433 | 0.766
20 | CC(C)(C)CC(c1nc2cc(Cl)ccc2c(=O)n1Nc1ccccc1)N(CCCN)C(=O)c1ccc(Br)cc1 (stereo not drawn) [Compound 58, N-(3-Aminopropyl)-N-[1-(3-anilino-7-chloro-4-oxo-3,4-dihydroquinazolin-2-yl)-3,3-dimethylbutyl]-4-bromobenzamide] |  | 3.69 |  | 5.88 | 5.55
21 | CCC(c1nc2cc(Cl)ccc2c(=O)n1Nc1ccccc1)N(CCN)C(=O)c1ccc(C)cc1 (stereo not drawn) [Compound 61, N-(2-Aminoethyl)-N-[1-(3-anilino-7-chloro-4-oxo-3,4-dihydroquinazolin-2-yl)propyl]-4-methylbenzamide] |  | 3.89 |  | 14.2 | 12.5
22 | CCC(c1nc2cc(Cl)ccc2c(=O)n1Nc1ccccc1)N(CCN)C(=O)c1c(F)ccc(C)c1F (stereo not drawn) [Compound 62, N-(2-Aminoethyl)-N-[1-(3-anilino-7-chloro-4-oxo-3,4-dihydroquinazolin-2-yl)propyl]-2,6-difluoro-3-methylbenzamide] |  | 3.74 |  | 21.7 | 22.8
23 | CCC(c1nc2cc(Cl)ccc2c(=O)n1Nc1ccccc1)N(CCN)C(=O)c1ccc(F)c(C)c1 (stereo not drawn) [Compound 63, N-(2-Aminoethyl)-N-[1-(3-anilino-7-chloro-4-oxo-3,4-dihydroquinazolin-2-yl)propyl]-4-fluoro-3-methylbenzamide] |  | 3.34 |  | 7.02 | 10.5
